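GI50 = concentration required for 50% inhibition of growth. The concentration for full growth arrest is given as TGI.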
Columns and labels:
Assay in all cases: NCI tumour cell line growth inhibition, 384-well format
NCI-H460 NSCLC = test system: NCI-H460 NSCLC
UO-31 renal = test system: UO-31 renal
NCI/ADR-RES ovarian = test system: NCI/ADR-RES ovarian
SR leukemia = test system: SR leukemia
786-0 renal = test system: 786-0 renal
HCT-15 colon = test system: HCT-15 colon
RXF 393 renal = test system: RXF 393 renal
DU-145 prostate = test system: DU-145 prostate
OVCAR-3 ovarian = test system: OVCAR-3 ovarian
KM12 colon = test system: KM12 colon
SK-MEL-5 melanoma = test system: SK-MEL-5 melanoma
LOX IMVI melanoma = test system: LOX IMVI melanoma
SF-268 CNS = test system: SF-268 CNS
SW-620 colon = test system: SW-620 colon
CAKI-1 renal = test system: CAKI-1 renal
UACC-257 melanoma = test system: UACC-257 melanoma
MOLT-4 leukemia = test system: MOLT-4 leukemia
NCI-H322M lung = test system: NCI-H322M lung
OVCAR-8 ovarian = test system: OVCAR-8 ovarian
HOP-92 NSCLC = test system: HOP-92 NSCLC
M14 melanoma = test system: M14 melanoma
SNB-75 CNS = test system: SNB-75 CNS
SF-295 CNS = test system: SF-295 CNS
K-562 leukemia = test system: K-562 leukemia
ACHN renal = test system: ACHN renal
MDA-MB-435 melanoma = test system: MDA-MB-435 melanoma
MDA-MB-231 breast = test system: MDA-MB-231 breast
CCRF-CEM leukemia = test system: CCRF-CEM leukemia
NCI-H23 lung = test system: NCI-H23 lung
SN12C renal = test system: SN12C renal
NCI-H522 lung = test system: NCI-H522 lung
HT29 colon = test system: HT29 colon
MALME-3M melanoma = test system: MALME-3M melanoma
COLO 205 colon = test system: COLO 205 colon
TK-10 renal = test system: TK-10 renal
MCF7 breast = test system: MCF7 breast
HL-60(TB) leukemia = test system: HL-60(TB) leukemia
SF-539 CNS = test system: SF-539 CNS
PC-3 prostate = test system: PC-3 prostate
U251 glioblastoma = test system: U251 glioblastoma
HOP-62 NSCLC = test system: HOP-62 NSCLC
NCI-H226 lung = test system: NCI-H226 lung
HCT-116 colon = test system: HCT-116 colon
EKVX NSCLC = test system: EKVX NSCLC
UACC-62 melanoma = test system: UACC-62 melanoma
MDA-MB-468 breast = test system: MDA-MB-468 breast
BT-549 breast = test system: BT-549 breast
A549 NSCLC = test system: A549 NSCLC
SNB-19 CNS = test system: SNB-19 CNS
RPMI-8226 leukemia = test system: RPMI-8226 leukemia
SK-MEL-28 melanoma = test system: SK-MEL-28 melanoma
SK-OV-3 ovarian = test system: SK-OV-3 ovarian
T-47D breast = test system: T-47D breast
IGROV1 ovarian = test system: IGROV1 ovarian
HCC-2998 colon = test system: HCC-2998 colon
HS 578T breast = test system: HS 578T breast
A498 renal = test system: A498 renal
OVCAR-4 ovarian = test system: OVCAR-4 ovarian

Cc1ccccc1C(C(=O)NC1CCCCC1)N(C(=O)CNc1ccc(C#N)cc1)c1cccc(F)c1 (stereo unspecified)
GI50 (NCI-H460 NSCLC): 3.86 µM | TGI (NCI-H460 NSCLC): > 100 µM | GI50 (UO-31 renal): 57.3 µM | TGI (UO-31 renal): > 100 µM | GI50 (NCI/ADR-RES ovarian): 46.9 µM | TGI (NCI/ADR-RES ovarian): > 100 µM | GI50 (SR leukemia): 1770 nM | TGI (SR leukemia): 4.61 µM | GI50 ([…]-0 renal): 3.83 µM | TGI (786-0 renal): 20.7 µM | GI50 (HCT-15 colon): 65.1 µM | TGI (HCT-15 colon): > 100 µM | GI50 (RXF 393 renal): 4.41 µM | TGI (RXF 393 renal): 24.7 µM | GI50 (DU-145 prostate): 12.6 µM | TGI (DU-145 prostate): > 100 µM | GI50 (OVCAR-3 ovarian): 3.58 µM | TGI (OVCAR-3 ovarian): 35.3 µM | GI50 (KM12 colon): 7.76 µM | TGI (KM12 colon): 89.6 µM | GI50 (SK-MEL-5 melanoma): 3.12 µM | TGI (SK-MEL-5 melanoma): 17.8 µM | GI50 (LOX IMVI melanoma): 24.7 µM | TGI (LOX IMVI melanoma): > 100 µM | GI50 (SF-268 CNS): 7.32 µM | TGI (SF-268 CNS): 55.9 µM | GI50 (SW-620 colon): 3.4 µM | TGI (SW-620 colon): > 100 µM | GI50 (CAKI-1 renal): 4.93 µM | TGI (CAKI-1 renal): 22.7 µM | GI50 (UACC-257 melanoma): 3.77 µM | TGI (UACC-257 melanoma): 18.5 µM | GI50 (MOLT-4 leukemia): > 100 µM | TGI (MOLT-4 leukemia): > 100 µM | GI50 (NCI-H322M lung): 13.4 µM | TGI (NCI-H322M lung): > 100 µM | GI50 (OVCAR-8 ovarian): 4.15 µM | TGI (OVCAR-8 ovarian): 58.3 µM | GI50 (HOP-92 NSCLC): 3.45 µM | TGI (HOP-92 NSCLC): 17 µM | GI50 (M14 melanoma): 2560 nM | TGI (M14 melanoma): 13.1 µM | GI50 (SNB-75 CNS): 2610 nM | TGI (SNB-75 CNS): 16.2 µM | GI50 (SF-295 CNS): 15 µM | TGI (SF-295 CNS): 47.1 µM | GI50 (K-562 leukemia): 3.25 µM | TGI (K-562 leukemia): > 100 µM | GI50 (ACHN renal): 11.6 µM | TGI (ACHN renal): > 100 µM | GI50 (MDA-MB-435 melanoma): 8.14 µM | TGI (MDA-MB-435 melanoma): > 100 µM | GI50 (MDA-MB-231 breast): 5.23 µM | TGI (MDA-MB-231 breast): 29.4 µM | GI50 (CCRF-CEM leukemia): 98.4 µM | TGI (CCRF-CEM leukemia): > 100 µM | GI50 (NCI-H23 lung): 4.65 µM | TGI (NCI-H23 lung): 24.4 µM | GI50 (SN12C renal): 4.43 µM | TGI (SN12C renal): 66.8 µM | GI50 (NCI-H522 lung): 7.86 µM | TGI (NCI-H522 lung): 67.7 µM | GI50 (HT29 colon): 5.56 µM | TGI (HT29 colon): > 100 µM | GI50 (MALME-3M melanoma): 713 nM | TGI (MALME-3M melanoma): 2590 nM | GI50 (COLO 205 colon): 3.04 µM | TGI (COLO 205 colon): 20.7 µM | GI50 (TK-10 renal): 19 µM | TGI (TK-10 renal): > 100 µM | GI50 (MCF7 breast): 14.6 µM | TGI (MCF7 breast): > 100 µM | GI50 (HL-60(TB) leukemia): 1150 nM | TGI (HL-60(TB) leukemia): 3.91 µM | GI50 (SF-539 CNS): 5.6 µM | TGI (SF-539 CNS): 21.4 µM | GI50 (PC-3 prostate): 7.84 µM | TGI (PC-3 prostate): 56.1 µM | GI50 (U251 glioblastoma): 15.7 µM | TGI (U251 glioblastoma): > 100 µM | GI50 (HOP-62 NSCLC): 6.88 µM | TGI (HOP-62 NSCLC): 45.3 µM | GI50 (NCI-H226 lung): 4.84 µM | TGI (NCI-H226 lung): 27.2 µM | GI50 (HCT-116 colon): 4.46 µM | TGI (HCT-116 colon): 33.9 µM | GI50 (EKVX NSCLC): 11.6 µM | TGI (EKVX NSCLC): > 100 µM | GI50 (UACC-62 melanoma): 1580 nM | TGI (UACC-62 melanoma): 4.91 µM | GI50 (MDA-MB-468 breast): 51.7 µM | TGI (MDA-MB-468 breast): > 100 µM | GI50 (BT-549 breast): 7.62 µM | TGI (BT-549 breast): 52.7 µM | GI50 (A549 NSCLC): 25 µM | TGI (A549 NSCLC): > 100 µM | GI50 (SNB-19 CNS): 3.16 µM | TGI (SNB-19 CNS): 16.6 µM | GI50 (RPMI-8226 leukemia): 8.12 µM | TGI (RPMI-8226 leukemia): > 100 µM | GI50 (SK-MEL-28 melanoma): 2490 nM | TGI (SK-MEL-28 melanoma): 11.6 µM | GI50 (SK-OV-3 ovarian): 8.22 µM | TGI (SK-OV-3 ovarian): 40.4 µM | GI50 (T-47D breast): 7.89 µM | TGI (T-47D breast): > 100 µM | GI50 (IGROV1 ovarian): 8.13 µM | TGI (IGROV1 ovarian): 88.7 µM | GI50 (HCC-2998 colon): 1480 nM | TGI (HCC-2998 colon): 11.2 µM | GI50 (HS 578T breast): 3.36 µM | TGI (HS 578T breast): 20.1 µM | GI50 (A498 renal): 6.17 µM | TGI (A498 renal): 27.2 µM | GI50 (OVCAR-4 ovarian): 5.82 µM | TGI (OVCAR-4 ovarian): 31.5 µM
